From patent publication US5294617A, “Angiotensin II receptor blocking 2,3,6 substituted quinazolinones” (American Cyanamid Company, priority 1993, dated 1994)
Where “and” joins values, the source holds several entries; their conditions need not be identical. Equal entries are not always repeated.

Tested on: ANGIOTENSIN II (AII) VASOPRESSOR RESPONSE
Experiment: AII Challenge: angiotensin II vasopressor response in conscious spontaneously hypertensive rats
Format: in vivo, Conscious Male Okamoto-Aoki SHR (rat)
Settings: individual rat, SHR
From the text: By administering a compound of this invention to a rat, and then challenging with angiotensin II, a blockage of the vasopressor response is realized.
Conscious Male Okamoto-Aoki SHR, 16-20 weeks old, weighing approximately 330 g are purchased from Charles River Labs (Wilmington, Mass.). Conscious rats are restrained in a supine position with elastic tape. The area at the base of the tail is locally anesthetized by subcutaneous infiltration with 2% procaine. The ventral caudal artery and vein are isolated, and a cannula made of polyethylene (PE) 10-20 tubing (fused together by heat) is passed into the lower abdominal aorta and vena cava, respectively. The cannula is secured, heparinized (1,000 I.U./ml), sealed and the wound is closed. The animals are placed in plastic restraining cages in an upright position. The cannula is attached to a Statham P23Db pressure transducer, and pulsatile blood pressure is recorded to 10-15 minutes with a Gould Brush recorder. (Chan et al., (Drug Development Res., 18:75-94, 1989).
Angiotensin II (human sequence, Sigma Chem. Co., St. Louis, Mo.) of 0.05 and 0.1 ug/kg i.v. is injected into all rats (predosing response). Then a test compound, vehicle or a known angiotensin II antagonist is administered i.v., i.p. or orally to each set of rats. The two doses of angiotensin II are given to each rat again at 30, 60, 90, 120, 180, 240 and 300 minutes post dosing the compound or vehicle. The vasopressor response of angiotensin II is measured for the increase in systolic blood pressure in mmHg. The percentage of antagonism or blockade of the vasopressor response of angiotensin II by a compound is calculated using the vasopressor response (increase in systolic blood pressure) of angiotensin II of each rat predosing the compound as 100%. A compound is considered active if at 30 mg/kg i.v. it antagonized at least 50% of the response.

[1] = 2 mg/kg i.v., AII 0.1 mcg/kg IV, 90 min post dose, 2 mg/kg
[2] = 2 mg/kg i.v., AII 0.1 mcg/kg IV, 120 min post dose, 2 mg/kg
[3] = 2 mg/kg i.v., AII 0.1 mcg/kg IV, 180 min post dose, 2 mg/kg
[4] = 10 mg/kg i.v., AII 0.05 mcg/kg IV, 30 min post dose, 10 mg/kg
[5] = 10 mg/kg i.v., AII 0.05 mcg/kg IV, 60 min post dose, 10 mg/kg
[6] = 10 mg/kg i.v., AII 0.05 mcg/kg IV, 120 min post dose, 10 mg/kg
[7] = 10 mg/kg i.v., AII 0.05 mcg/kg IV, 180 min post dose, 10 mg/kg
[8] = 10 mg/kg i.v., AII 0.05 mcg/kg IV, 240 min post dose, 10 mg/kg
[9] = 10 mg/kg i.v., AII 0.05 mcg/kg IV, 300 min post dose, 10 mg/kg
[10] = 10 mg/kg i.v., AII 0.1 mcg/kg IV, 30 min post dose
[11] = 10 mg/kg i.v., AII 0.1 mcg/kg IV, 60 min post dose, 10 mg/kg
[12] = 10 mg/kg i.v., AII 0.1 mcg/kg IV, 90 min post dose, 10 mg/kg
[13] = 10 mg/kg i.v., AII 0.1 mcg/kg IV, 120 min post dose, 10 mg/kg
[14] = 10 mg/kg i.v., AII 0.1 mcg/kg IV, 180 min post dose, 10 mg/kg
[15] = 10 mg/kg i.v., AII 0.1 mcg/kg IV, 240 min post dose, 10 mg/kg
[16] = 10 mg/kg i.v., AII 0.1 mcg/kg IV, 300 min post dose, 10 mg/kg

With `CCCCc1nc2ccc([C@@H]3C[C@H](CO)ON3C)cc2c(=O)n1Cc1ccc(-c2ccccc2-c2nn[nH]n2)cc1` (relative stereo) [Example 15, CIS-2-butyl-6-5-(hydroxymethyl)-2-methyl-3-isoxazolidinyl]-3-[[2'-(1H-tetrazol-5[1,1'-biphenyl]-4-yl]methyl]-4(3H)-quinazolinone] the “Response After AII” value [1] was 245 mmHg and 240 mmHg, the “Response Change” value [1] was 30 mmHg and 20 mmHg and the “Response After AII” value [2] was 227 mmHg and 235 mmHg. The “Response Change” value [2] was 17 mmHg and 20 mmHg, the “Response After AII” value [3] was 220 mmHg and 255 mmHg and the “Response Change” value [3] was 10 mmHg and 35 mmHg. For the same molecule, the “Control Before AII” value (2 mg/kg i.v., before AII 0.05 mcg/kg IV, 30 min post dose, 2 mg/kg) was 215 mmHg and 225 mmHg, the “Control Before AII” value (2 mg/kg i.v., before AII 0.05 mcg/kg IV, 60 min post dose) was 220 mmHg and the “Control Before AII” value (2 mg/kg i.v., before AII 0.05 mcg/kg IV, 90 min post dose, 2 mg/kg) was 210 mmHg and 225 mmHg. The “Control Before AII” value (2 mg/kg i.v., before AII 0.05 mcg/kg IV, 120 min post dose, 2 mg/kg) was 205 mmHg and 215 mmHg, the “Control Before AII” value (2 mg/kg i.v., before AII 0.05 mcg/kg IV, 180 min post dose, 2 mg/kg) was 203 mmHg and 215 mmHg and the “Control Before AII” value (2 mg/kg i.v., before AII 0.1 mcg/kg IV, 30 min post dose, 2 mg/kg) was 220 mmHg and 215 mmHg. The “Control Before AII” value (2 mg/kg i.v., before AII 0.1 mcg/kg IV, 60 min post dose, 2 mg/kg) was 220 mmHg and 217 mmHg, the “Control Before AII” value (2 mg/kg i.v., before AII 0.1 mcg/kg IV, 90 min post dose, 2 mg/kg) was 215 mmHg and 220 mmHg and the “Control Before AII” value (2 mg/kg i.v., before AII 0.1 mcg/kg IV, 120 min post dose, 2 mg/kg) was 210 mmHg and 215 mmHg. The “Control Before AII” value (2 mg/kg i.v., before AII 0.1 mcg/kg IV, 180 min post dose, 2 mg/kg) was 210 mmHg and 220 mmHg, the “Response After AII” value [4] was 180 mmHg and 190 mmHg and the “Response Change” value [4] was 5 mmHg and 15 mmHg. For the same molecule, the “Response After AII” value (10 mg/kg i.v., AII 0.05 mcg/kg IV, 60 min post dose) was 190 mmHg, the “Response After AII” value [5] was 165 mmHg and the “Response Change” value [5] was 0 mmHg and 1 mmHg. For the same molecule, the “Response Change” value (10 mg/kg i.v., AII 0.05 mcg/kg IV, 90 min post dose) was 5 mmHg, the “Response After AII” value (10 mg/kg i.v., AII 0.05 mcg/kg IV, 90 min post dose, 10 mg/kg) was 180 mmHg and 170 mmHg and the “Response After AII” value [6] was 195 mmHg and 175 mmHg. For the same molecule, the “Response Change” value [6] was 15 mmHg and 10 mmHg, the “Response After AII” value [7] was 195 mmHg and 165 mmHg and the “Response Change” value [7] was 30 mmHg and 10 mmHg. The “Response After AII” value (10 mg/kg i.v., AII 0.05 mcg/kg IV, 240 min post dose) was 160 mmHg, the “Response After AII” value [8] was 195 mmHg and the “Response Change” value [8] was 25 mmHg and 5 mmHg. The “Response After AII” value (10 mg/kg i.v., AII 0.05 mcg/kg IV, 300 min post dose) was 170 mmHg, the “Response After AII” value [9] was 185 mmHg and the “Response Change” value [9] was 17 mmHg and 10 mmHg. For the same molecule, the “Response After AII” value [10] was 170 mmHg, the “Response Change” value [10] was 0 mmHg and the “Response After AII” value (10 mg/kg i.v., AII 0.1 mcg/kg IV, 30 min post dose, 10 mg/kg) was 185 mmHg. For the same molecule, the “Response After AII” value [11] was 193 mmHg and 170 mmHg, the “Response Change” value [11] was 8 mmHg and 10 mmHg and the “Response After AII” value [12] was 195 mmHg and 175 mmHg. For the same molecule, the “Response Change” value [12] was 10 mmHg and 15 mmHg, the “Response After AII” value (10 mg/kg i.v., AII 0.1 mcg/kg IV, 120 min post dose) was 190 mmHg and the “Response After AII” value [13] was 175 mmHg. The “Response Change” value [13] was 15 mmHg and 10 mmHg, the “Response After AII” value [14] was 205 mmHg and 165 mmHg and the “Response Change” value [14] was 35 mmHg and 8 mmHg. The “Response After AII” value [15] was 205 mmHg and 165 mmHg, the “Response Change” value [15] was 35 mmHg and 8 mmHg and the “Response After AII” value [16] was 190 mmHg and 200 mmHg. The “Response Change” value [16] was 25 mmHg and 40 mmHg, the “Control Before AII” value (10 mg/kg i.v., before AII 0.05 mcg/kg IV, 30 min post dose) was 175 mmHg and the “Control Before AII” value (10 mg/kg i.v., before AII 0.05 mcg/kg IV, 60 min post dose, 10 mg/kg) was 190 mmHg and 164 mmHg. The “Control Before AII” value (10 mg/kg i.v., before AII 0.05 mcg/kg IV, 90 min post dose, 10 mg/kg) was 175 mmHg and 165 mmHg, the “Control Before AII” value (10 mg/kg i.v., before AII 0.05 mcg/kg IV, 120 min post dose, 10 mg/kg) was 180 mmHg and 165 mmHg and the “Control Before AII” value (10 mg/kg i.v., before AII 0.05 mcg/kg IV, 180 min post dose, 10 mg/kg) was 165 mmHg and 155 mmHg. For the same molecule, the “Control Before AII” value (10 mg/kg i.v., before AII 0.05 mcg/kg IV, 240 min post dose, 10 mg/kg) was 170 mmHg and 155 mmHg, the “Control Before AII” value (10 mg/kg i.v., before AII 0.05 mcg/kg IV, 300 min post dose, 10 mg/kg) was 168 mmHg and 160 mmHg and the “Control Before AII” value (10 mg/kg i.v., before AII 0.1 mcg/kg IV, 30 min post dose, 10 mg/kg) was 185 mmHg and 170 mmHg. The “Control Before AII” value (10 mg/kg i.v., before AII 0.1 mcg/kg IV, 60 min post dose, 10 mg/kg) was 185 mmHg and 160 mmHg, the “Control Before AII” value (10 mg/kg i.v., before AII 0.1 mcg/kg IV, 90 min post dose, 10 mg/kg) was 185 mmHg and 160 mmHg and the “Control Before AII” value (10 mg/kg i.v., before AII 0.1 mcg/kg IV, 120 min post dose, 10 mg/kg) was 175 mmHg and 165 mmHg. The “Control Before AII” value (10 mg/kg i.v., before AII 0.1 mcg/kg IV, 180 min post dose, 10 mg/kg) was 170 mmHg and 157 mmHg, the “Control Before AII” value (10 mg/kg i.v., before AII 0.1 mcg/kg IV, 240 min post dose, 10 mg/kg) was 170 mmHg and 157 mmHg and the “Control Before AII” value (10 mg/kg i.v., before AII 0.1 mcg/kg IV, 300 min post dose, 10 mg/kg) was 165 mmHg and 160 mmHg.
